In patent publication US20250206722A1, “SMALL MOLECULE INHIBITORS OF TEA DOMAIN FAMILY MEMBERS” (The Scripps Research Institute, priority 2022, published 2025):

Assays:
NCI-H226 cells = test: NCI-H226 proliferation assay (in house); format: cell-based; settings: Homo sapiens, 120 h, 5 days, Cell TiterGlo, 20-point 1:2 dilution from 20 μM
Protocol: NCI-H226 Proliferation Assay
NCI-H226 cells were obtained from American Type Culture Collection (ATCC, CRL-5826) and cultured in RPMI 1640 with L-glutamine (Corning, 10-040-CV) supplemented with 10% fetal bovine serum (Gibco, 10438-026) and 1% penicillin-streptomycin (Gibco, 15070063). Cells were trypsinized, resuspended in growth medium, and diluted to a concentrated of 10,000 cells/mL. 500 cells, 50 μL of cell suspension, per well were then plated in a white 384-well plate (Corning) and incubated at 37° C., 5% CO2. After 24 hours incubation, 100 nL of test compounds in DMSO, 20-point 1:2 dilution starting from 20 μM (final concentration) in triplicate, were transferred to each well using an Agilent Bravo instrument outfitted with a pintool head. Cells were incubated at 37° C., 5% CO2 for 5 days followed by the addition of 30 μL of Cell TiterGlo (Promega; diluted 1:6 in water) to each well and luminescence values recorded using an EnVision plate reader. […]

[1] = test system: transcriptional activity of TEADs; test: TEAD reporter assay (MCF7 TEAD-LUC reporter cells); format: cell-based; settings: Homo sapiens, 24 hours, BrightGlo luminescence
Protocol: MCF7 TEAD-LUC reporter cells were obtained from BPS Bioscience, Inc. and cultured in DMEM medium (Corning, 10-013-CV) supplemented with 10% fetal bovine serum (Gibco, 10438-026), 1% penicillin-streptomycin (Gibco, 15070063), 1% non-essential amino acids (Gibco, 15070063), and 10 μg/mL insulin (Sigma, 10516). Cells were trypsinized, resuspended in growth medium, and diluted to a concentrated of 100,000 cells/mL. 5,000 cells, 50 μL of cell suspension, per well were then plated in a white 384-well plate (Corning) and incubated at 37° C., 5% CO2. After 24 hours incubation, 100 nL of test compounds in DMSO, 20-point 1:2 dilution starting from 20 μM (final concentration) in triplicate, were transferred to each well using an Agilent Bravo instrument outfitted with a pintool head. Cells were incubated at 37° C., 5% CO2 for 24 hours followed by the addition of 30 μL of BrightGlo (Promega; diluted 1:3 in water) to each well and luminescence values recorded using an EnVision plate reader.
The in vitro assay results of the compounds in the present invention were included in Table 1. The compounds described herein, inhibited the transcriptional activity of TEADs, as assessed by decreased luminance from a TEAD reporter cell line (MCF7 TEAD-LUC) in response to compound treatment.

| Compound | IC50 (NCI-H226 cells) [µM] | IC50 [1] [nM] |
| --- | --- | --- |
| C=C(C(=O)N1CCC(c2nccnc2Oc2ccc(C(F)(F)F)nc2)CC1)C(F)(F)F [Example 81, 2-(trifluoromethyl)-1-(4-(3-((6-(trifluoromethyl)pyridin-3-yl)oxy)pyrazin-2-yl)piperidin-1-yl)prop-2-en-1-one] | 2.97 | 9.5 |
| C=C(CN1CC(c2nccnc2Oc2ccc(C(F)(F)F)nc2)C1)C(=O)O [Example 86, 2-((3-(3-((6-(trifluoromethyl)pyridin-3-yl)oxy)pyrazin-2-yl)azetidin-1-yl)methyl)acrylic acid] | 3.01 | 31000 |
| C=CC(=O)N1CCN(c2nccnc2C(=O)c2ccc(C(F)(F)F)cc2)CC1 [Example 95, 1-(4-(3-(4-(trifluoromethyl)benzoyl)pyrazin-2-yl)piperazin-1-yl)prop-2-en-1-one] | 0.012 | 1.3 |
| C=CC(=O)N1CCN(c2nccnc2C(O)c2ccc(C(F)(F)F)cc2)CC1 (stereo not shown) [Example 97, 1-(4-(3-(hydroxy(4-(trifluoromethyl)phenyl)methyl)pyrazin-2-yl)piperazin-1-yl)prop-2-en-1-one] | 0.019 | 3 |
| C=CC(=O)N1CCN(c2nccnc2Cc2ccc(C(F)(F)F)cc2)CC1 [Example 98, 1-(4-(3-(4-(trifluoromethyl)benzyl)pyrazin-2-yl)piperazin-1-yl)prop-2-en-1-one] | 0.012 | 0.9 |
| C=CC(=O)N1CCN(c2nccnc2C(=O)N2CC3(CC(C(F)(F)F)C3)C2)CC1 [Example 101, 1-(4-(3-(6-(trifluoromethyl)-2-azaspiro[3.3]heptane-2-carbonyl)pyrazin-2-yl)piperazin-1-yl)prop-2-en-1-one] | 3.76 | 13.4 |
| C=CC(=O)N1CCN(c2ncc(O)nc2Nc2ccc(C(F)(F)F)cc2)CC1 [Example 111, 1-(4-(5-hydroxy-3-((4-(trifluoromethyl)phenyl)amino)pyrazin-2-yl)piperazin-1-yl)prop-2-en-1-one] | 5.64 | 239 |
| C=C(F)C(=O)N1CCN(c2nc(C)c(C)nc2Nc2ccc(C(F)(F)F)nc2)CC1 [Example 114, 1-(4-(5,6-dimethyl-3-((6-(trifluoromethyl)pyridin-3-yl)amino)pyrazin-2-yl)piperazin-1-yl)-2-fluoroprop-2-en-1-one] | 0.072 | 4.4 |
| C=CC(=O)N1CCN(c2cnncc2Nc2ccc(C(F)(F)F)cc2)CC1 [Example 122, 1-(4-(5-((4-(trifluoromethyl)phenyl)amino)pyridazin-4-yl)piperazin-1-yl)prop-2-en-1-one] | > 10 | 6.8 |
| C=CC(=O)N1CCC(c2cnc(C)nc2Oc2ccc(C(F)(F)F)nc2)CC1 [Example 131, 1-(4-(2-methyl-4-((6-(trifluoromethyl)pyridin-3-yl)oxy)pyrimidin-5-yl)piperidin-1-yl)prop-2-en-1-one] | 2.25 | 598 |
| C=CC(=O)N1CCN(c2nc(OC)ncc2Nc2ccc(C(F)(F)F)cc2)CC1 [Example 133, 1-(4-(2-methoxy-5-((4-(trifluoromethyl)phenyl)amino)pyrimidin-4-yl)piperazin-1-yl)prop-2-en-1-one] | 0.722 | 16.5 |
| C=CC(=O)N1CCN(c2ncccc2C(=O)c2ccc(C(F)(F)F)cn2)CC1 [Example 140, 1-(4-(3-(5-(trifluoromethyl)picolinoyl)pyridin-2-yl)piperazin-1-yl)prop-2-en-1-one] | 11.1 | 8.6 |

Results, then the compound that gave them:

| IC50 (NCI-H226 cells) [µM] | IC50 [1] [nM] | Compound |
| --- | --- | --- |
| 0.008 | 1.8 | C=CC(=O)N1CCN(c2nccnc2Oc2ccc(C(F)(F)F)nc2)CC1 [Example 77, 1-(4-(3-((6-(trifluoromethyl)pyridin-3-yl)oxy)pyrazin-2-yl)piperazin-1-yl)prop-2-en-1-one] |
| > 20 | > 20000 | C=C(CN1CCC(c2nccnc2Oc2ccc(C(F)(F)F)nc2)CC1)C(=O)O [Example 82, 2-((4-(3-((6-(trifluoromethyl)pyridin-3-yl)oxy)pyrazin-2-yl)piperidin-1-yl)methyl)acrylic acid] |
| 0.0173 | 1.4 | C=CC(=O)N1CC=C(c2nccnc2Oc2ccc(C(F)(F)F)nc2)CC1 [Example 84, 1-(4-(3-((6-(trifluoromethyl)pyridin-3-yl)oxy)pyrazin-2-yl)-3,6-dihydropyridin-1(2H)-yl)prop-2-en-1-one] |
| 2.08 | 142 | C=CC(=O)N1CCN(c2nccnc2C(=O)NC2CCC2)CC1 [Example 99, 3-(4-acryloylpiperazin-1-yl)-N-cyclobutylpyrazine-2-carboxamide] |
| 1.18 | 74 | C=CC(=O)N1CCN(c2nccnc2C(=O)NC2CC(F)(F)C2)CC1 [Example 100, 3-(4-acryloylpiperazin-1-yl)-N-(3,3-difluorocyclobutyl)pyrazine-2-carboxamide] |
| 1.6 | 39 | C=CC(=O)N1CCN(c2nccnc2C(=O)NC2CCCC2)CC1 [Example 102, 3-(4-acryloylpiperazin-1-yl)-N-cyclopentylpyrazine-2-carboxamide] |
| > 20 | 166 | C=CC(=O)N1CCN(c2nccnc2C(=O)N2CCC(C(F)(F)F)CC2)CC1 [Example 103, 1-(4-(3-(4-(trifluoromethyl)piperidine-1-carbonyl)pyrazin-2-yl)piperazin-1-yl)prop-2-en-1-one] |
| 2.74 | 2220 | C=CC(=O)N1CCN(c2nccnc2C(=O)N2CCC(F)(F)CC2)CC1 [Example 104, 1-(4-(3-(4,4-difluoropiperidine-1-carbonyl)pyrazin-2-yl)piperazin-1-yl)prop-2-en-1-one] |
| 1.33 | 1.1 | C=C(F)C(=O)N1CC=C(c2cnc(C)nc2Oc2ccc(C(F)(F)F)nc2)CC1 [Example 130, 2-fluoro-1-(4-(2-methyl-4-((6-(trifluoromethyl)pyridin-3-yl)oxy)pyrimidin-5-yl)-3,6-dihydropyridin-1(2H)-yl)prop-2-en-1-one] |
| 4.31 | 451 | C=C(F)C(=O)N1CCC(c2cnc(C)nc2Oc2ccc(C(F)(F)F)nc2)CC1 [Example 132, 2-fluoro-1-(4-(2-methyl-4-((6-(trifluoromethyl)pyridin-3-yl)oxy)pyrimidin-5-yl)piperidin-1-yl)prop-2-en-1-one] |
| 1.67 | 410 | C=C(F)C(=O)N1CCN(c2ncccc2Nc2ccc(C(F)(F)F)nc2)CC1 [Example 135, 2-fluoro-1-(4-(3-((6-(trifluoromethyl)pyridin-3-yl)amino)pyridin-2-yl)piperazin-1-yl)prop-2-en-1-one] |
| 0.341 | 66 | C=CC(=O)N1CC=C(c2ncccc2Oc2ccc(C(F)(F)F)nc2)CC1 [Example 136, 1-(3-((6-(trifluoromethyl)pyridin-3-yl)oxy)-3′,6′-dihydro-[2,4′-bipyridin]-1′(2′H)-yl)prop-2-en-1-one] |
| 0.243 | 22 | C=C(F)C(=O)N1CC=C(c2ncccc2Oc2ccc(C(F)(F)F)nc2)CC1 [Example 137, 2-fluoro-1-(3-((6-(trifluoromethyl)pyridin-3-yl)oxy)-3′,6′-dihydro-[2,4′-bipyridin]-1′(2′H)-yl)prop-2-en-1-one] |
| 7.03 | 3240 | C=C(F)C(=O)N1CCC(c2ncccc2Oc2ccc(C(F)(F)F)nc2)CC1 [Example 139, 2-fluoro-1-(4-(3-((6-(trifluoromethyl)pyridin-3-yl)oxy)pyridin-2-yl)piperidin-1-yl)prop-2-en-1-one] |
